{
  "source": "patent US11654203B2",
  "key": {"[1]": {"test_system": "human colorectal cancer cells (HCT15)", "assay": "Colorectal cancer animal bio-distribution (gamma counter)", "format": "in vivo, BALB/c nude mouse", "conditions": "25 mCi/kg, n=3", "source_text": "(3) There were four time points in each group and three mice at each time point.\n(4) The animals were sacrificed at 2nd h, 4th h, 24th h and 48th h after dosage to take organs (brain, heart, lung, liver, kidney, spleen, stomach, large intestine, small intestine, tumor, muscle and blood).\n(5) Tissue organs were weighed, and radioactivities were counted and read by a gamma counter.\n(6) With a percentage (%) of a radioactivity count of Injected Dose (ID) in a radioactivity count of each gram (g) of tissue as unit (% ID/g), the line graph was drawn for showing.\nThe value was a percentage of Injected Dose in each gram of organs (% ID/g). […] Data was represented by an average value ±SEM (n=3)."}, "[2]": {"test_system": "human colorectal cancer cells (HCT15)", "assay": "NanoSPECT/CT imaging of colorectal cancer animal model", "format": "in vivo, BALB/c nude mouse", "conditions": "caudal vein, 25 mCi/kg, imaged at 2, 4, 24, 48 h", "procedure": "(1) Each BALB/c nude mouse that was 8 weeks old was subjected to subcutaneous injection of human colorectal cancer cells (HCT15, 1*10^6 cells) on a right hind leg, grew for 10-14 d, and started to be dosed with the drug when a cell tumor grew to a size of 50-100 mm^3.\n(3) NanoSPECT/CT image analysis was carried out at 2nd h, 4th h, 24th h and 48th h after animal dosage (brand: Mediso).\n(4) Obtained images were subjected to image recombination and outputting by VivoQuamt software."}},
  "data": [
    {"smiles": "O=C([O-])CN1CCN(CC(=O)[O-])CCN(CC(=O)[O-])CCN(CC(=O)[O-])CC1.[111In+3]", "note": "[^111In-DOTA]", "values": [
      {"measurement": "tumor absorbability", "setting": "[1]; 2nd h after caudal vein dosage", "value": 0.88, "unit": "% ID/g"},
      {"measurement": "gathering degree at the tumor hypoxia position", "setting": "[1]; 24th h after caudal vein dosage", "value": 1.08, "unit": "% ID/g"},
      {"measurement": "drug gathering at tumor hypoxia position, nanoSPECT/CT", "setting": "[2]", "value": "no obvious drug gathering phenomenon"}
    ]}
  ]
}
